Values joined by “and” are separate entries in the source; they are usually repeats but may differ in a detail not shown here. Equal entries are not always repeated. Where two headings read alike, the source gives them in different places.
Columns and labels:
[1] = test system: P. falciparum NF54 erythrocytic stages; test: Activity against Plasmodium falciparum (3H-hypoxanthine incorporation); type: cell-based; details: for Selectivity index (SI): IC50 in L6 cells divided by IC50 in P. falciparum: L6 cells vs P. falciparum NF54
Protocol: In vitro activity against the erythrocytic stages of P. falciparum was determined using a ^3H-hypoxanthine incorporation assay ([Desjardins et al., 1979]), using the drug sensitive NF54 strain ([Ponnudurai et al., 1981]). Compounds were dissolved in DMSO at 10 mg/ml and further diluted in medium before addition to parasite cultures incubated in RPMI 1640 medium without hypoxanthine, supplemented with HEPES (5.94 g/L), NaHCO3 (2.1 g/L), neomycin (100 U/ml), Albumax^R (5 g/L), and washed human red cells A^+ at 2.5% haematocrit (0.3% parasitemia). Serial drug dilutions of 11 three-fold dilution steps covering a range from 100 to 0.002 μg/ml were prepared. The 96-well plates were incubated in a humidified atmosphere at 37°C; 4% CO2, 3% O2, 93% N2. After 48 h, 50 μl of ^3H-hypoxanthine (=0.5 μCi) was added to each well of the plate. The plates were incubated for a further 24 h under the same conditions. The plates were then harvested with a Betaplate™ cell harvester (Wallac, Zurich, Switzerland), the red blood cells transferred onto a glass fibre filter, and lysed with distilled water. The dried filters were inserted into a plastic foil with 10 ml of scintillation fluid and counted in a Betaplate™ liquid scintillation counter (Wallac, Zurich, Switzerland). IC50 values were calculated from sigmoidal inhibition curves by linear regression using Microsoft Excel. Chloroquine (Sigma C6628) was used as control. Assays were performed in two independent replicates at least.

[2] = test system: L. donovani amastigotes in mouse peritoneal macrophages; test: Activity against Leishmania donovani intramacrophage amastigotes (high-content imaging); type: cell-based; details: 96 h, read-out: IC50 L. donovani Intramacrophage
Protocol: (§1) Macrophages were isolated from the mouse (CDI) peritoneal cavity ([Zhang et al., 2008]) using 2% starch solution as eliciting agent injected 2 day prior to cell harvest. Animal work was carried out according to the rules and regulations for the protection of animal rights (“Tierschutzverordnung”) of the Swiss “Bundesamt für Veterinärwesen” (License number 2374). Mouse peritoneal macrophages (4 × 10^4 in 100 µL RPMI 1640 medium with 10% heat-inactivated FBS) were seeded into wells of a 96-well plate. After 24 h, 2 × 10^5 amastigote L. donovani in 100 µL were added. The amastigotes were taken from an axenic amastigote culture grown at pH 5.4. The medium containing free amastigote forms was removed after 24 h and replaced with fresh medium. The washing step was repeated and afterward the serial drug dilution was prepared with at least 6 dilution steps. Compounds were dissolved in DMSO at 10 mg/ml and further diluted in medium. After 96 h of incubation at 37°C under a 5% CO2 atmosphere, the medium was removed, and cells were fixed by adding 50 µl 4% formaldehyde solution followed by a staining with a 5 µM DRAQ5 solution. Plates were imaged in ImageXpress XLS (MD) microscope using a 20× air objective (635 nm excitation: 690/50 emission). 9 images were collected per well. Automated image analysis was performed with a script developed on Meta Xpress Software (MD). Three outputs were provided for each well: i) number of host cell nuclei; ii) numbers of infected and non-infected host cells; iii) number of parasite nuclei per infected host cell. The IC50 values were calculated based on the infection rate and the numbers of intracellular amastigotes. The cytotoxicity to macrophages was determined in parallel, and IC50 values were calculated based on the numbers of surviving, uninfected macrophages. Miltefosine was used as control. Assays were performed in two independent replicates at least.

[3] = test system: L. donovani strain MHOM/ET/67/L82 axenic amastigotes; test: Activity against Leishmania donovani axenic amastigotes (resazurin); type: cell-based; details: for Selectivity index (SI): IC50 in L6 cells divided by IC50 in L. donovani axenic amastigotes: L6 cells vs axenic L. donovani; for IC50: mean ± absolute deviation, at least two replicates
Protocol: Amastigotes of L. donovani strain MHOM/ET/67/L82 were grown under an atmosphere of 5% CO2 in air in axenic culture at 37°C in SM medium ([Cunningham, 1977]) at pH 5.4 supplemented with 10% heat-inactivated fetal bovine serum. 50 µL of culture medium was added in the wells of a 96-well plate and serial drug dilutions of eleven three-fold dilution steps covering a final range from 100 to 0.002 μg/ml were prepared. 50 µL culture medium with 2 × 10^5 amastigotes from axenic culture were added to each well. After 70 h of incubation the plates were inspected under an inverted microscope to assure growth of the controls and sterile conditions. 10 μl of resazurin (12.5 mg resazurin dissolved in 100 ml distilled water) were added to each well and the plates incubated for another 2 h. Then the plates were read with a Spectramax Gemini XS microplate fluorometer (Molecular Devices Cooperation, Sunnyvale, CA, USA) using an excitation wavelength of 536 nm and an emission wavelength of 588 nm. Data were analyzed using the software Softmax Pro (Molecular Devices Cooperation, Sunnyvale, CA, USA). Decrease of fluorescence (= inhibition) was expressed as percentage of the fluorescence of untreated control cultures and plotted against the drug concentrations. From the sigmoidal inhibition curves the IC50 values were calculated. Miltefosine was used as positive control drug. Assays were performed in two independent replicates at least.

[4] = Cytotoxicity to macrophages determined in parallel to the intramacrophage assay; type: cell-based; details: CDI, surviving, uninfected mouse peritoneal macrophages
Protocol: as §1

[5] = test system: T. b. rhodesiense STIB 900 bloodstream forms; test: Activity against Trypanosoma brucei rhodesiense STIB900 (resazurin); type: cell-based; details: for Selectivity index (SI): IC50 in L6 cells divided by IC50 in T. b. rhodesiense: L6 cells vs T. b. rhodesiense STIB 900; for IC50: STIB 900 bloodstream forms, 70 h + resazurin, mean ± absolute deviation
Protocol: The stock was originally isolated from a patient and adapted to axenic culture conditions after several mouse passages and cloned. Minimum Essential Medium (50 µl) supplemented with 25 mM HEPES, 1 g/L additional glucose, 1% MEM non-essential amino acids (100×), 0.2 mM 2-mercaptoethanol, 1 mM Na-pyruvate ([Baltz et al., 1985]) and 15% heat inactivated horse serum was added to each well of a 96-well microtiter plate. Serial drug dilutions of eleven 3-fold dilution steps covering a range from 100 to 0.002 μg/ml were prepared. Then 4 × 10^3 bloodstream forms of T. b. rhodesiense STIB 900 in 50 µL were added to each well and the plate incubated for 70 h at 37°C and under a 5% CO2 atmosphere. 10 µL resazurin solution (resazurin, 12.5 mg in 100 ml double-distilled water) was then added to each well and incubation continued for a further 2–4 h ([Räz et al., 1997]). Plates were read with a Spectramax Gemini XS microplate fluorometer (Molecular Devices Cooperation, Sunnyvale, CA, USA) using an excitation wavelength of 536 nm and an emission wavelength of 588 nm. […] Melarsoprol (Arsobal Sanofi-Aventis, received from WHO) was used as control. Assays were performed in two independent replicates at least.

[6] = In vitro cytotoxicity with L-6 cells (resazurin); type: cell-based, rat; details: rat; L6 cells, 70 h + 2 h resazurin; mean ± absolute deviation
Protocol: Assays were performed in 96-well microtiter plates, each well containing 100 µl of RPMI 1640 medium supplemented with 1% L-glutamine (200 mM) and 10% fetal bovine serum, and 4000 L-6 cells (a primary cell line derived from rat skeletal myoblasts) ([Ahmed et al., 1994]). Serial drug dilutions of 11 three-fold dilution steps covering a range from 100 to 0.002 μg/ml were prepared 24 h post seeding L-6 cells. The plates were incubated for 70 h and inspected under an inverted microscope to assure growth of the controls and sterile conditions. 10 µl of resazurin was then added to each well and the plates incubated for another 2 h. Then the plates were read with a Spectramax Gemini XS microplate fluorometer (Molecular Devices Cooperation, Sunnyvale, CA, USA) using an excitation wavelength of 536 nm and an emission wavelength of 588 nm. The IC50 values were calculated by linear regression and four-parameter logistic regression from the sigmoidal dose inhibition curves using SoftmaxPro software (Molecular Devices Cooperation, Sunnyvale, CA, USA). Podophyllotoxin (Sigma P4405) was used as positive control. All assays were performed in two independent replicates at least. Activities of all compounds were expressed in µM using the formula: […]

[7] = Leishmania donovani, Peritoneal macrophage, amastigotes in mouse peritoneal macrophages
[8] = Leishmania donovani, pH 5.4, axenic amastigotes, MHOM/ET/67/L82, pH 5.4, 70 h + 2 h resazurin, read-out: IC50 L. donovani Axenic
[9] = NF54 drug sensitive strain, erythrocytic stages, 72 h, mean ± absolute deviation, read-out: IC50 P. falciparum
[10] = Plasmodium falciparum, NF54, 72 h, NF54 drug sensitive strain, erythrocytic stages, 72 h, mean ± absolute deviation, read-out: IC50 P. falciparum
[11] = Plasmodium falciparum, NF54, 72 h, read-out: IC50 P. falciparum, NF54 drug sensitive strain, erythrocytic stages, 72 h, mean ± absolute deviation

| Molecule | IC50 [2, 7] | Selectivity index (SI): IC50 in L6 cells divided by IC50 in L. donovani axenic amastigotes [3] | IC50 [3, 8] | IC50 at 96 h [4] | Selectivity index (SI): IC50 in L6 cells divided by IC50 in P. falciparum [1] | IC50 [1, 9] | IC50 [1, 10] | Selectivity index (SI): IC50 in L6 cells divided by IC50 in T. b. rhodesiense [5] | IC50 ([5]; Trypanosoma brucei, 70 h) | other results |
| --- | --- | --- | --- | --- | --- | --- | --- | --- | --- | --- |
| CCN(CC)CCCC(C)Nc1ccnc2cc(Cl)ccc12 (centres unmarked) [Chloroquine, reference compound] | – | – | – | – | – | – | – | – | – | IC50 ([1]; Plasmodium falciparum, NF54, 72 h, read-out: IC50 P. falciparum): 0.01 ± 0.002 µM |
| COc1cc(O)c2c(=O)c(OC)c(-c3ccc(OC)c(O)c3)oc2c1 [Compound 2, Ayanin] | > 95.9 µM | 12.2 | 8.2 ± 1.6 µM | 128 ± 3.5 µM | 12.9 | 7.8 ± 0.9 µM | 7 to 8 µM | 8.9 | 11.2 ± 0.2 µM | – |
| COc1ccc(-c2oc3cc(O)cc(O)c3c(=O)c2OC)cc1OC [Compound 1, Quercetin-3,3′,4′-trimethylether] | > 79.9 µM | 9.8 | 15 to 22 µM | 154 ± 19.3 µM | 4.4 | – | 42.1 ± 12.5 µM | 3.4 | 55.1 ± 13.2 µM | – |
| COc1ccc(C[C@@H]2c3cc(OC)c(OC)cc3CCN2C)cc1O [Compound 8, Laudanine] | – | – | – | > 200 µM | – | – | – | – | > 80 µM | IC50 ([2]; Leishmania donovani, Peritoneal macrophage): > 292 µM; IC50 ([3]; Leishmania donovani, pH 5.4, read-out: IC50 L. donovani Axenic, axenic amastigotes, MHOM/ET/67/L82, pH 5.4, 70 h + 2 h resazurin): > 150 µM; IC50 [1, 11]: 78.6 ± 0.4 µM; IC50 at 70 h [6]: 292 µM |
| O=c1c(O)c(-c2ccc(O)cc2)oc2cc(O)cc(O)c12 [Compound 13, Kaempferol] | > 115 µM | 5.3 | 20.8 ± 1.7 µM | 151 ± 18.8 µM | 2.1 | – | 53.1 ± 7.7 µM | 3.1 | 36.4 ± 8.7 µM | – |
| COc1cc([C@@H]2c3cc4c(cc3[C@H](O)[C@H]3COC(=O)[C@H]23)OCO4)cc(OC)c1OC [Podophyllotoxin, reference compound] | – | – | – | – | – | – | – | – | – | IC50 at 70 h [6]: 0.03 ± 0.005 µM |
| COc1cc(-c2oc3cc(O)cc(O)c3c(=O)c2O)ccc1O [Compound 11, Isorhamnetin] | > 210 µM | 6.0 | 21.7 ± 7.9 µM | > 199 µM | 6.0 | – | – | 5.0 | 25.9 ± 5.4 µM | IC50 [1, 11]: ~20 µM; IC50 ([1]; read-out: IC50 P. falciparum, NF54 drug sensitive strain, erythrocytic stages, 72 h, mean ± absolute deviation): 21.6 ± 0.7 µM; IC50 at 70 h [6]: 130 ± 58.7 µM |
| COc1cc(O)c2c(=O)c(OC)c(-c3ccc(O)c(O)c3)oc2c1 [Compound 6, Quercetin-3,7-dimethylether] | > 66.7 µM | 12.3 | 4.5 ± 0.3 µM | 102 ± 49.7 µM | 7.6 | 7.3 ± 0.6 µM | 7 to 8 µM | 23.2 | 2.4 ± 0.5 µM | – |
| CCCCCCCCCCCCCCCCOP(=O)([O-])OCC[N+](C)(C)C [Miltefosine, reference compound] | 6.6 ± 0.3 µM | – | 0.5 ± 0.2 µM | > 24.1 µM | – | – | – | – | – | – |
| CC(=O)O[C@H]1[C@H]2c3c(ccc4c(=O)cc(-c5ccccc5)oc34)O[C@H]2OC1(C)C [Compound 12, (-)-(3′′S,4′′R,5′′S)-Pseudosemiglabrin] | > 84.2 µM | 4.1 | 18.9 ± 2.6 µM | 145 ± 10.5 µM | 4.8 | 16.3 ± 2.7 µM | ~20 µM | 2.1 | 37.5 ± 6.1 µM | – |
| (+)-(7S,7′S,8R,8′R)-Pinoresinol [Compound 10] | – | 1.6 | – | – | – | > 140 µM | – | 2.1 | – | IC50 ([2]; amastigotes in mouse peritoneal macrophages): > 279 µM; IC50 ([3]; axenic amastigotes, MHOM/ET/67/L82, pH 5.4, 70 h + 2 h resazurin, read-out: IC50 L. donovani Axenic): > 150 µM and 151 µM; IC50 P. falciparum ([1]; NF54 drug sensitive strain, erythrocytic stages, 72 h, mean ± absolute deviation): least active; IC50 [5]: 116.8 ± 0.3 µM |
